# From patent US20040229791A1, “Compositions and methods of modulating TGF-beta activity by fatty acids” (priority 2002, published 2004)
# What was measured:
# [1] = Plasma clearance of 125I-TGF-β1 with and without α2M* and arachidonic acid; assay type: in vivo, mice; conditions: control experiments, no α2M*
# Procedure: TGF ? β1-α2M* and TGF- ? 2- ? 2M* complexes are cleared from plasma by the ? liver (30). To test the possibility that fatty acids may be able to affect the plasma clearance of TGF ? β and α2M* complexes, ^125I-TGF ? β1 or ^125I-TGF- ? 2 were prei presence or absence of 10 μM arachidonic acid at room temperature for 30 min, and then injected into mice via tail vein according to published procedures (19). At several time intervals (10 sec, 1, 2, 3, 5, 10, 15, 20, 30 and 60 min) about 50 μl of blood was collected and counted by a γ-counter. […] The t 1+α2M* or ^125I-TGF- ? 2+α2M* were approximately 4 min. These twith published values of free ^125I-TGF- ? 1,2 and ^125I-TGF- ? 1,2-α2M* complexes, respe (19). In the presence of arachidonic acid, the t1/2s of ^125I-TGF ? β1+α2M* and ^125I-TGF α2M* were decreased to approximately 1-2 min; these are essentially identical to the t1/2s of free ^125I-TGF- ? 1 and ^125I-TGF ? β2 (FIGS. 7A and B). In control experiments, arachidonic acid did no affect the plasma clearance of free ^125I-TGF ? β1 and ^125I-TGF- ? 2.
# Plasma clearance of ^125I-TGF ? β in the presence and absence of ? 2M*-^125I-TGF- ? 1 nM) or ^125I-TGF- ? 2 (1 nM) was pre-incubated with ? […] The radioactivity in the blood sample obtained at 10 s was taken as 100%.
# [2] = biological target: T1, α2M* and nerve growth factor (NGF) (Homo sapiens, UniProt P01023); experiment: Complex formation between α2M* and nerve growth factor; assay type: binding
# T1 sequence (P01023 24-1474): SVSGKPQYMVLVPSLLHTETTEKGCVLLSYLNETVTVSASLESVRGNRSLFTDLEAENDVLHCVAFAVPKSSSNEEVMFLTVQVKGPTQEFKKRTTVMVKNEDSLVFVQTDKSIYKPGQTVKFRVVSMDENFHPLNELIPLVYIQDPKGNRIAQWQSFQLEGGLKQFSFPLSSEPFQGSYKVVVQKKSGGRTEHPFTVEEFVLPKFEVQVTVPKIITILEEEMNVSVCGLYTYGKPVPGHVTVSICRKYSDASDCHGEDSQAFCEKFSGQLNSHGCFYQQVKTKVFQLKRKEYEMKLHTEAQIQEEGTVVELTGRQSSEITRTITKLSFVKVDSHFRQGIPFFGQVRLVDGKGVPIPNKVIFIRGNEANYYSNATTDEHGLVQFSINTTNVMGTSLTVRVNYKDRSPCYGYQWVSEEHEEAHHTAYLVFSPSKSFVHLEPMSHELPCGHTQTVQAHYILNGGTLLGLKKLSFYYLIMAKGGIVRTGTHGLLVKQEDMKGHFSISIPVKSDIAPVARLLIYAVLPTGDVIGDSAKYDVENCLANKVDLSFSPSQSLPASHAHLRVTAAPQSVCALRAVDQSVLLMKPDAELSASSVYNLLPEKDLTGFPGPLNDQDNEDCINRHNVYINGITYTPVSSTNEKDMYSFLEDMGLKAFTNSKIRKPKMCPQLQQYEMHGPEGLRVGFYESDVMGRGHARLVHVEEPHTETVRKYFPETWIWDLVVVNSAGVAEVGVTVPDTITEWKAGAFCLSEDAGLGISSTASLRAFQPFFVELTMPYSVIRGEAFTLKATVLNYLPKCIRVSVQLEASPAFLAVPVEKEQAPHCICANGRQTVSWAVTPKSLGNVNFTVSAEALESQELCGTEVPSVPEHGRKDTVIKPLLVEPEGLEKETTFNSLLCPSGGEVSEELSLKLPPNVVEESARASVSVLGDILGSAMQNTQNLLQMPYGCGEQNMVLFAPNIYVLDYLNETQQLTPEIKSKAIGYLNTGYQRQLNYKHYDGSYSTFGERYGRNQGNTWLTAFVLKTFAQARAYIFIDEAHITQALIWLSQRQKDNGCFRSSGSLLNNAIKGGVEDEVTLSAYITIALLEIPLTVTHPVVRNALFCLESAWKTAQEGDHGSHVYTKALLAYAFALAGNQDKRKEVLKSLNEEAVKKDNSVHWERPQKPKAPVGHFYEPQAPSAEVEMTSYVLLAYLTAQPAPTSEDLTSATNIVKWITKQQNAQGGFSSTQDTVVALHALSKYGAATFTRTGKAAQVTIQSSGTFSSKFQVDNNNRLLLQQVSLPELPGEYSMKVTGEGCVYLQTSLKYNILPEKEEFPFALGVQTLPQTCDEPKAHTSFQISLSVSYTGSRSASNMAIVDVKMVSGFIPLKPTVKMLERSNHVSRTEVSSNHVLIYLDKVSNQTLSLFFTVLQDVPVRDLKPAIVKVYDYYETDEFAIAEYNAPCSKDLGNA
smiles,measurement,setting,value
CCCCC/C=C\C/C=C\C/C=C\C/C=C\CCCC(=O)O [arachidonic acid],effect on plasma clearance of free 125I-TGF-β1,[1],did no affect
same,blocking of complex formation between α2M* and NGF,[2],block complex formation
